For 28 compounds, inhibition results are on record in US10544103B2, “5-HT2 antagonists” (ANAMAR AB, priority 2015, dated 2020).

The assay deals with T1, 5-HT2B receptor (Homo sapiens, UniProt P41595).
T1 construct: host or cells: CHO-K1
The assay can be described thus: 5-HT2B receptor binding, 3H-LSD ligand displacement assay. Particulars: for inhibition at 0.01 µM: 0.01 uM compound; for inhibition at 0.1 µM: 0.1 uM compound; for inhibition at 1 µM: 1 uM compound; for inhibition at 0.001 µM: 0.001 uM compound. The procedure:
5-HT2B receptor binding (performed at Eurofins Panlabs Taiwan, Ltd.) to human receptor protein expressed in CHO-K1 cells was determined in a ligand displacement assay using ^3H-lysergic acid diethylamide (LSD) as radioligand and ketanserine as a standard reference compound. Data is presented as % displacement of radioligand at indicated compound concentrations, see Table 1 and Table 2.

T1 sequence (P41595 whole entry): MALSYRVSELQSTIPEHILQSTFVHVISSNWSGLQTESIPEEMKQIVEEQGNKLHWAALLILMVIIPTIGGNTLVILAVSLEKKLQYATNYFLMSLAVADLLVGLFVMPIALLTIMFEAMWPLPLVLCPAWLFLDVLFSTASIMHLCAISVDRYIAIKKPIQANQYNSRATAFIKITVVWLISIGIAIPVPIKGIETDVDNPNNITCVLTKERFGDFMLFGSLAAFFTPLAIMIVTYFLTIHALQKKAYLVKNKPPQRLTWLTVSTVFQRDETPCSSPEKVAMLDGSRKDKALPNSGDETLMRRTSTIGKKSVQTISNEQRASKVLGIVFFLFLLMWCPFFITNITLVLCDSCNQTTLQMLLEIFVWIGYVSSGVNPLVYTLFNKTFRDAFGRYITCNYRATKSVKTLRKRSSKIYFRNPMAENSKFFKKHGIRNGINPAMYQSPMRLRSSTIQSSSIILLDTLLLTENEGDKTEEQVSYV

In general, inhibition refers to the drop in the measured response relative to a control, in per cent. In the case of `CC1CN(C(=N)N)N=C1c1c[nH]c2ccccc12` (centres unmarked) [Example 70, 3-(1H-Indol-3-yl)-4-methyl-4,5-dihydro-1H-pyrazole-1-carboximidamide], the inhibition at 0.01 µM turned out to be 38%, the inhibition at 0.1 µM worked out at 84% and the inhibition at 1 µM was determined as 98%.

Take `CC1CN(C(=N)N)N=C1c1ccnc2ccccc12` (centres unmarked) [Example 71, 4-Methyl-3-(quinolin-4-yl)-4,5-dihydro-1H-pyrazole-1-carboximidamide]: the inhibition at 0.01 µM stood at 11%, the inhibition at 0.1 µM is 20% and the inhibition at 1 µM was 43%.

As for `CC1CN(C(=N)NCc2ccccc2)N=C1c1cccc(Cl)c1O` (centres unmarked) [Example 75, N-Benzyl-3-(3-chloro-2-hydroxyphenyl)-4-methyl-4,5-dihydro-1H-pyrazole-1-carboximidamide], the inhibition at 0.001 µM came out at 76% and the inhibition at 0.01 µM came out at 97%.

For `CCCCNC(=N)N1CC(C)C(c2cccc(Cl)c2OC)=N1` (centres unmarked) [Example 78, N-butyl-3-(3-chloro-2-methoxyphenyl)-4-methyl-4,5-dihydro-1H-pyrazole-1-carboximidamide], the inhibition at 0.001 µM worked out at 49%, the inhibition at 0.01 µM amounted to 85% and the inhibition at 0.1 µM came out at 98%.

Consider `CCCCNC(=N)N1CC(C)C(c2cccc(Cl)c2O)=N1` (centres unmarked) [Example 79, N-Butyl-3-(3-chloro-2-hydroxyphenyl)-4-methyl-4,5-dihydro-1H-pyrazole-1-carboximidamide], for which the inhibition at 0.001 µM stood at 79%, the inhibition at 0.01 µM was 91% and the inhibition at 0.1 µM was 94%.

`CCCCCCNC(=N)N1CC(C)C(c2cccc(Cl)c2OC)=N1` (centres unmarked) [Example 80, 3-(3-Chloro-2-methoxyphenyl)-N-hexyl-4-methyl-4,5-dihydro-1H-pyrazole-1-carboximidamide]: the inhibition at 0.001 µM was determined as 13%, the inhibition at 0.01 µM was found to be 68% and the inhibition at 0.1 µM amounted to 97%.

In the case of `CCCCCCNC(=N)N1CC(C)C(c2cccc(Cl)c2O)=N1` (centres unmarked) [Example 81, 3-(3-Chloro-2-hydroxyphenyl)-N-hexyl-4-methyl-4,5-dihydro-1H-pyrazole-1-carboximidamide], the inhibition at 0.001 µM was found to be 62%, the inhibition at 0.01 µM was 96% and the inhibition at 0.1 µM amounted to 97%.

For `CCCCCCCCCCCCNC(=N)N1CC(C)C(c2cccc(Cl)c2OC)=N1` (centres unmarked) [Example 82, 3-(3-Chloro-2-methoxyphenyl)-N-dodecyl-4-methyl-4,5-dihydro-1H-pyrazole-1-carboximidamide], the inhibition at 0.001 µM worked out at 0%, the inhibition at 0.01 µM was -4% and the inhibition at 0.1 µM worked out at 51%.

As for `CCCCCCCCCCCCNC(=N)N1CC(C)C(c2cccc(Cl)c2O)=N1` (centres unmarked) [Example 83, 3-(3-Chloro-2-hydroxyphenyl)-N-dodecyl-4-methyl-4,5-dihydro-1H-pyrazole-1-carboximidamide], the inhibition at 0.001 µM is 3%, the inhibition at 0.01 µM was 23% and the inhibition at 0.1 µM is 82%.

On to `COc1c(Cl)cccc1C1=NN(C(=N)NC2CCCCC2)CC1C` (centres unmarked) [Example 84, 3-(3-Chloro-2-methoxyphenyl)-N-cyclohexyl-4-methyl-4,5-dihydro-1H-pyrazole-1-carboximidamide], for which the inhibition at 0.001 µM was 11%, the inhibition at 0.01 µM came to 63% and the inhibition at 0.1 µM was 94%.

Regarding `CC1CN(C(=N)NC2CCCCC2)N=C1c1cccc(Cl)c1O` (centres unmarked) [Example 85, 3-(3-Chloro-2-hydroxyphenyl)-N-cyclohexyl-4-methyl-4,5-dihydro-1H-pyrazole-1-carboximidamide], the inhibition at 0.001 µM was 47%, the inhibition at 0.01 µM was 93% and the inhibition at 0.1 µM was found to be 101%.

As to `COc1c(Cl)cccc1C1=NN(C(=N)NC2CC2)CC1C` (centres unmarked) [Example 86, 3-(3-Chloro-2-methoxyphenyl)-N-cyclopropyl-4-methyl-4,5-dihydro-1H-pyrazole-1-carboximidamide], the inhibition at 0.001 µM is -14%, the inhibition at 0.01 µM worked out at 29% and the inhibition at 0.1 µM was found to be 83%.

As to `CC1CN(C(=N)NC2CC2)N=C1c1cccc(Cl)c1O` (centres unmarked) [Example 87, 3-(3-Chloro-2-hydroxyphenyl)-N-cyclopropyl-4-methyl-4,5-dihydro-1H-pyrazole-1-carboximidamide], the inhibition at 0.001 µM was found to be 24%, the inhibition at 0.01 µM was 84% and the inhibition at 0.1 µM amounted to 100%.

For the compound `COc1c(Cl)cccc1C1=NN(C(=N)Nc2ccccc2)CC1C` (centres unmarked) [Example 88, 3-(3-Chloro-2-methoxyphenyl)-4-methyl-N-phenyl-4,5-dihydro-1H-pyrazole-1-carboximidamide], the inhibition at 0.001 µM came out at 53%, the inhibition at 0.01 µM was 92% and the inhibition at 0.1 µM was 97%.

Turning to `CC1CN(C(=N)Nc2ccccc2)N=C1c1cccc(Cl)c1O` (centres unmarked) [Example 89, 3-(3-Chloro-2-hydroxyphenyl)-4-methyl-N-phenyl-4,5-dihydro-1H-pyrazole-1-carboximidamide], the inhibition at 0.001 µM worked out at 88%, the inhibition at 0.01 µM was found to be 100% and the inhibition at 0.1 µM turned out to be 97%.

`COc1c(Cl)cccc1C1=NN(C(=N)NC#N)CC1C` (centres unmarked) [Example 90, 3-(3-Chloro-2-methoxyphenyl)-N-cyano-4-methyl-4,5-dihydro-1H-pyrazole-1-carboximidamide]: the inhibition at 0.001 µM came out at 3%, the inhibition at 0.01 µM is 1% and the inhibition at 0.1 µM was -2%.

On to `CC1CN(C(=N)NC#N)N=C1c1cccc(Cl)c1O` (centres unmarked) [Example 91, 3-(3-Chloro-2-hydroxyphenyl)-N-cyano-4-methyl-4,5-dihydro-1H-pyrazole-1-carboximidamide], for which the inhibition at 0.001 µM is -15%, the inhibition at 0.01 µM is 27% and the inhibition at 0.1 µM is 74%.

Consider `COc1ccccc1C1=NN(C(=N)NCC(F)(F)C(F)(F)C(F)(F)F)CC1C` (centres unmarked) [Example 92, N-(2,2,3,3,4,4,4-Heptafluorobutyl)-3-(2-methoxyphenyl)-4-methyl-4,5-dihydro-1H-pyrazole-1-carboximidamide], for which the inhibition at 0.001 µM is -3%, the inhibition at 0.01 µM worked out at 22% and the inhibition at 0.1 µM was found to be 78%.

As for `CC1CN(C(=N)NCC(F)(F)C(F)(F)C(F)(F)F)N=C1c1ccccc1O` (centres unmarked) [Example 93, N-(2,2,3,3,4,4,4-Heptafluorobutyl)-3-(2-hydroxyphenyl)-4-methyl-4,5-dihydro-1H-pyrazole-1-carboximidamide], the inhibition at 0.001 µM is 21%, the inhibition at 0.01 µM was 80% and the inhibition at 0.1 µM came to 98%.

Turning to `COc1ccccc1C1=NN(C(=N)NCC(F)(F)F)CC1C` (centres unmarked) [Example 94, 3-(2-Methoxyphenyl)-4-methyl-N-(2,2,2-trifluoroethyl)-4,5-dihydro-1H-pyrazole-1-carboximidamide], the inhibition at 0.001 µM is -12%, the inhibition at 0.01 µM stood at 17% and the inhibition at 0.1 µM is 77%.

Take `CC1CN(C(=N)NCC(F)(F)F)N=C1c1ccccc1O` (centres unmarked) [Example 95, 3-(2-Hydroxyphenyl)-4-methyl-N-(2,2,2-trifluoroethyl)-4,5-dihydro-1H-pyrazole-1-carboximidamide]: the inhibition at 0.001 µM stood at 12%, the inhibition at 0.01 µM worked out at 70% and the inhibition at 0.1 µM was determined as 96%.

Regarding `COc1ccccc1C1=NN(C(=N)Nc2ccccc2)CC1C` (centres unmarked) [Example 96, 3-(2-Methoxyphenyl)-4-methyl-N-phenyl-4,5-dihydro-1H-pyrazole-1-carboximidamide], the inhibition at 0.001 µM came to 19%, the inhibition at 0.01 µM amounted to 43% and the inhibition at 0.1 µM came to 93%.

Take `CC1CN(C(=N)Nc2ccccc2)N=C1c1ccccc1O` (centres unmarked) [Example 97, 3-(2-Hydroxyphenyl)-4-methyl-N-phenyl-4,5-dihydro-1H-pyrazole-1-carboximidamide]: the inhibition at 0.001 µM was 62%, the inhibition at 0.01 µM turned out to be 99% and the inhibition at 0.1 µM came to 105%.

`COc1ccccc1C1=NN(C(=N)Nc2ccc(C(F)(F)F)cc2)CC1C` (centres unmarked) [Example 98, 3-(2-Methoxyphenyl)-4-methyl-N-(4-(trifluoromethyl)phenyl)-4,5-dihydro-1H-pyrazole-1-carboximidamide]: the inhibition at 0.001 µM is 5%, the inhibition at 0.01 µM amounted to 41% and the inhibition at 0.1 µM turned out to be 86%.

As to `CC1CN(C(=N)Nc2ccc(C(F)(F)F)cc2)N=C1c1ccccc1O` (centres unmarked) [Example 99, 3-(2-Hydroxyphenyl)-4-methyl-N-(4-(trifluoromethyl)phenyl)-4,5-dihydro-1H-pyrazole-1-carboximidamide], the inhibition at 0.001 µM came to 48%, the inhibition at 0.01 µM is 89% and the inhibition at 0.1 µM is 103%.

For the compound `COc1ccccc1C1=NN(C(=N)Nc2ccc(F)cc2)CC1C` (centres unmarked) [Example 100, N-(4-Fluorophenyl)-3-(2-methoxyphenyl)-4-methyl-4,5-dihydro-1H-pyrazole-1-carboximidamide], the inhibition at 0.001 µM was found to be 19%, the inhibition at 0.01 µM turned out to be 27% and the inhibition at 0.1 µM is 78%.

Regarding `CC1CN(C(=N)Nc2ccc(F)cc2)N=C1c1ccccc1O` (centres unmarked) [Example 101, N-(4-Fluorophenyl)-3-(2-hydroxyphenyl)-4-methyl-4,5-dihydro-1H-pyrazole-1-carboximidamide], the inhibition at 0.001 µM was 55%, the inhibition at 0.01 µM is 91% and the inhibition at 0.1 µM was 102%.

Take `COc1ccccc1C1=NN(C(=N)Nc2ccc(Cl)cc2)CC1C` (centres unmarked) [Example 102, N-(4-Chlorophenyl)-3-(2-methoxyphenyl)-4-methyl-4,5-dihydro-1H-pyrazole-1-carboximidamide]: the inhibition at 0.001 µM is 17%, the inhibition at 0.01 µM came to 44% and the inhibition at 0.1 µM was determined as 92%.
